These results are taken from patent US20190365730A1, “ANAESTHETIC COMPOSITION COMPRISING ROPIVACAINE, PRILOCAINE AND LIDOCAINE” (priority 2017, published 2019).

The conditions of data set [1]: compared with prilocaine, lidocaine or ropivacaine; cited from earlier work.
The test system of data set [2] is intact skin of the lower arm. In words: Pinprick test of anesthesis after topical application to intact skin of the lower arm. In kind it is in vivo. As for the experimental part: The pharmaceutical compositions were topically administered to intact skin of the arm and tested for anesthesis by pinpricks to a treated area of the skin. The sensation of pain was recorded for every puncture of the skin by the pin. […] The compositions were applied to intact skin of the lower arm in a circle area of a diameter of 1-2 cm. The amount of the composition applied to the skin was kept constant and left on the skin during the study. The treated area of intact skin was subjected to repeated pinpricks and the sensation of pain was recorded.

For data set [3] the following is noted: animal models, compared with bupivacaine; cited from earlier work.
For data set [4] the following is noted: relative to lidocaine; cited from earlier work.

The structures appear in SMILES notation.

Take `CCCCN1CCCCC1C(=O)Nc1c(C)cccc1C` (centres unmarked) [bupivacaine, 1-Butyl-N-(2,6-dimethylphenyl)-2-piperidinecarboxamide]: the toxicity result in data set [1] is reported as “more toxic than prilocaine, lidocaine or ropivacaine”.

As to `CCCN1CCCC[C@H]1C(=O)Nc1c(C)cccc1C.Cl.O` [Ropivacaine, (S)-N-(2,6-dimethylphenyl)-1-propylpiperidine-2-carboxamide hydrochloride monohydrate], in data set [2], the “duration of effect (effect lasted)” value stood at 3 h and the onset of anesthesis entry is on record as “approximately 1 hour”. For the same compound, the cardiotoxicity result in data set [3] is “less cardiotoxicity than bupivacaine”. Further, the “duration time of anesthesis compared to lidocaine” value in data set [4] was “about two”.
